Experimental data as given in patent publication US20200000752A1, “Method for Treating Epilepsy” (Vanderbilt University, priority 2016, published 2020).
Entries after “also recorded” stand apart in the source; their conditions may differ.

Tests used:
[1] = molecular target: CYP 2C9 (Homo sapiens, UniProt P11712); assay: biochemical
[2] = molecular target: T1, CYP 1A2 (Homo sapiens, UniProt P05177); assay: CYP inhibition, 1A2
[3] = molecular target: CYP 2B6 (Homo sapiens, UniProt P20813); assay: biochemical
[4] = molecular target: CYP 2D6 (Homo sapiens, UniProt P10635); assay: biochemical
[5] = system: cytochrome P450 enzymes (CYPs); details: cited from earlier work
[6] = molecular target: T2, CYP 2C19 (Homo sapiens, UniProt P33261); assay: biochemical
[7] = system: Scn1a^+/− mice; details: for Number SWDs: SWDs over 1 sec, 30 min after PTZ 50 mg/kg, n=2, celastrol 0.3 mg/kg intermittent (8th day of drug holiday), diazepam 0.3 mg/kg, stiripentol 150 mg/kg, saline 21
[8] = molecular target: T1, CYP 1A2; assay: biochemical
[9] = molecular target: CYP 2C8 (Homo sapiens, UniProt P10632); assay: biochemical
[10] = molecular target: T2, CYP 2C19
[11] = system: MDCKII cells; assay: MDCKII bidirectional assay; type: in vitro ADME
Excerpt: MDCKII bidirectional assay was run in collaboration with Dr. Shaun Stauffer in Vanderbilt Institute of Chemical Biology (VICB) synthesis core who is a consultant on this project.

T2 sequence (P33261 whole entry): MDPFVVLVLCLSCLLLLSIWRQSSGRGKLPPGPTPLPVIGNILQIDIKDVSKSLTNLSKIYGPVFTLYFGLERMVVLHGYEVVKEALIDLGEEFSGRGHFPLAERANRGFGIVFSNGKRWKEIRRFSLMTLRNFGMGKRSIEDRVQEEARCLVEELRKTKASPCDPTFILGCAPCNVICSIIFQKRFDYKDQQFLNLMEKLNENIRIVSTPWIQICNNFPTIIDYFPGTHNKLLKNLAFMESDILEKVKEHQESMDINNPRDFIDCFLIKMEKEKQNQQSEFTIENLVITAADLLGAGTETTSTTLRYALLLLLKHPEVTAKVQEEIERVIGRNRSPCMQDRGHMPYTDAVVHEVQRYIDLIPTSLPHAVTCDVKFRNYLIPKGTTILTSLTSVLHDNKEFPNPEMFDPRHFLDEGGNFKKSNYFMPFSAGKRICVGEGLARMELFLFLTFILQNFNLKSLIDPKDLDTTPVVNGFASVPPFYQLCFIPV
T1 sequence (P05177 whole entry): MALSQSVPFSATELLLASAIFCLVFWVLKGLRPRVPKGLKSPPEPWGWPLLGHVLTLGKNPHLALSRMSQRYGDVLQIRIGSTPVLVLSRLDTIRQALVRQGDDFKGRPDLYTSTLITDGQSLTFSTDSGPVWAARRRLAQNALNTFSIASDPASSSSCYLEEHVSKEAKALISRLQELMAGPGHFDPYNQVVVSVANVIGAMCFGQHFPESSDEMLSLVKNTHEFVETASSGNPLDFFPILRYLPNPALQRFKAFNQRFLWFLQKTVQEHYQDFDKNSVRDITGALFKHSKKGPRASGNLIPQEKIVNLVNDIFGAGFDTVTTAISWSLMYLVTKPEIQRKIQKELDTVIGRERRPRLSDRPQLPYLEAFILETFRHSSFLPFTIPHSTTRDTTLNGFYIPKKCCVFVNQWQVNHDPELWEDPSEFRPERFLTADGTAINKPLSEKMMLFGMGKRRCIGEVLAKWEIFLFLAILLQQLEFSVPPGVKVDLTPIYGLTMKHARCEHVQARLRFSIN
Sequence of CYP 2C8 (P10632 whole entry): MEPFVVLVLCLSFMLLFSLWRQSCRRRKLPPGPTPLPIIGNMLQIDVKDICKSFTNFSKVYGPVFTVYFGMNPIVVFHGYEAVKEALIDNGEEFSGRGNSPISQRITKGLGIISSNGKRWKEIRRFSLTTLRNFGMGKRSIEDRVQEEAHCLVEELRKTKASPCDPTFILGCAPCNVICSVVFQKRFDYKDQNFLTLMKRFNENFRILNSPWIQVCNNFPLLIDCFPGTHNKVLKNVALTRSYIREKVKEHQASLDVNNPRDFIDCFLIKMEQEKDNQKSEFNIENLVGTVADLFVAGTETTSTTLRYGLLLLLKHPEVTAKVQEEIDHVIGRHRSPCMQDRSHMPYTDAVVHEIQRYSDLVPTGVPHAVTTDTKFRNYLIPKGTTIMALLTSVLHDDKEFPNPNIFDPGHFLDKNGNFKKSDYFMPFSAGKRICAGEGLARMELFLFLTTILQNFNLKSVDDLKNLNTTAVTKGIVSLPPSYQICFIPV
Sequence of CYP 2B6 (P20813 whole entry): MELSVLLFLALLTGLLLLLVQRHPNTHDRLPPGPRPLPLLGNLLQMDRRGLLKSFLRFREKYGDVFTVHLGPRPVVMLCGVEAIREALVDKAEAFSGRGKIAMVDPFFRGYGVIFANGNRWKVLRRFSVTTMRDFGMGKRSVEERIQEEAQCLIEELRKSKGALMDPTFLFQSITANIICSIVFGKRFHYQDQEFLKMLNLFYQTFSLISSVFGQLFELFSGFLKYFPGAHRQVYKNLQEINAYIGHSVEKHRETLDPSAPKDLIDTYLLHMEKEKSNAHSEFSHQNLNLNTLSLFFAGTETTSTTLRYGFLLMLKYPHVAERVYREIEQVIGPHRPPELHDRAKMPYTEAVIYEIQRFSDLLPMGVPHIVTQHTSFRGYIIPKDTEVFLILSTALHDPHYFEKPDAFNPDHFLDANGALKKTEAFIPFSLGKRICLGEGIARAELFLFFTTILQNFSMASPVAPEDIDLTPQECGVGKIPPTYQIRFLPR
Sequence of CYP 2D6 (P10635 whole entry): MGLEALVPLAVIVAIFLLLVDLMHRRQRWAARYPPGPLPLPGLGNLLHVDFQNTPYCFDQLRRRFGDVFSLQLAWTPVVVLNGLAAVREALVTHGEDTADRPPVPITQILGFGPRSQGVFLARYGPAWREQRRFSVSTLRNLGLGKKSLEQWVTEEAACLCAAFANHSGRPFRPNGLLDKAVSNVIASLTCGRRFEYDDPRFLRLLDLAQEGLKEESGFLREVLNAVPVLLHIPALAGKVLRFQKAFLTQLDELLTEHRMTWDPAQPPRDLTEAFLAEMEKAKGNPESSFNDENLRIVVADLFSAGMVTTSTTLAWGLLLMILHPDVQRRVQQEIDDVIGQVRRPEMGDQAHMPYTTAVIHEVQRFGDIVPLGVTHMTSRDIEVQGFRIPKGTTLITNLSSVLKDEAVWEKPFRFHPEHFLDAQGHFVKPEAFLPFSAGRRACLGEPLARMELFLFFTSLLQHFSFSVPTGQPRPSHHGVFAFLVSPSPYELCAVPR
Sequence of CYP 2C9 (P11712 whole entry): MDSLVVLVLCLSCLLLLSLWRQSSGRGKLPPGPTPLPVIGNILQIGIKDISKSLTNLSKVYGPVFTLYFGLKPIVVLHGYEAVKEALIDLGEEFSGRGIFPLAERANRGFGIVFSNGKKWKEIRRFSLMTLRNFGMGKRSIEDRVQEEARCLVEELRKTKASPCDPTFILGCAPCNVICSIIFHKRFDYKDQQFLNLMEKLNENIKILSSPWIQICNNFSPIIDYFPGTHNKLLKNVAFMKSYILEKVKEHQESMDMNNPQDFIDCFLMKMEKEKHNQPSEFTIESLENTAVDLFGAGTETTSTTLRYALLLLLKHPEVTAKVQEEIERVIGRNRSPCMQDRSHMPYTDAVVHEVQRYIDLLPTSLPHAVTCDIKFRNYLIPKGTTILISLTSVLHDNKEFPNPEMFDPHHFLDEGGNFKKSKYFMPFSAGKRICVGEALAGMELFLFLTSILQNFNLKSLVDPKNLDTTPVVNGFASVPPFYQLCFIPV

Row | Compound | IC50 [1] [µM] | inhibition of 1A2, in words [2] | IC50 [3] [µM] | IC50 [4] [µM] | CYP inhibition as reported in the literature [5] | IC50 [6] [µM] | Number SWDs [7] | appearance and mortality ([7]; mouse, in vivo, 300 mg/kg) | IC50 [8] [µM] | IC50 [9] [µM] | inhibition of 2C19, in words [10] | permeability in MDCK II bidirectional assay, in words [11]
1 | CC(C)(C)C(O)/C=C/c1ccc2c(c1)OCO2 (stereo not shown) [Stiripentol] | > 10 | potent inhibitor; also recorded: very potent inhibitor | 8.82 | > 10 | inhibit CYPs including 1A2, 2C9, 2C19, 2D6 and 3A4 | 1.84 | 11 | appeared lethargic and had increased mortality | 1.26 | > 10 | potent inhibitor; also recorded: very potent inhibitor | –
2 | COc1cc(/C=C/C(=O)CC(=O)/C=C/c2ccc(O)c(OC)c2)ccc1O [curcumin, reference compound] | – | – | – | – | – | – | – | – | – | – | – | impermeable
3 | CN1C(=O)CN=C(c2ccccc2)c2cc(Cl)ccc21 [Diazepam] | – | – | – | – | – | – | 8 | – | – | – | – | –
